Converted amounts (≈) assume the structure as drawn. Where two headings read alike, the source gives them in different places. Some results are limits rather than exact numbers.

The subject of series [1] is Micrococcus luteus IFO 12708. In words: Antibacterial activity (MIC), standard method of Japan Society of Chemotherapy. The class given is cell-based. From the text: (§1) The results obtained from the typical compounds are shown in Table 2 as the minimum inhibitory concentration (MIC, μg/ml). […] In Table 2, Test compound No. corresponds to derivative No. in Table 1.
Series [2] has as its system Bacillus subtilis IFO 3134. Described as above. The series is classed as cell-based.
Excerpt: as §1

In series [3] the test system is Staphylococcus aureus IFO 12732. Described as above. The class given is cell-based.
Excerpt: as §1

The subject of series [4] is Klebsiella pneumoniae IFO 3512. The description is as above. The series is classed as cell-based.
Excerpt: as §1

For series [5], the system named is Mycobacterium smegmatis ATCC 607. Described as above. Conditions: Mycolicibacterium smegmatis. The class given is cell-based.
Excerpt: as §1

Series [6] has as its system Escherichia coli IFO 12734. The description is as above. The class given is cell-based. Conditions: IFO12734, read-out: minimum inhibitory concentration (MIC).
Excerpt: as §1

The nature of series [7]: Concentration in serum after oral administration to rats. Conditions: rat, 20 mg/kg.
Where [8] appears, read: IFO12708, Micrococcus luteus IFO 12708, read-out: minimum inhibitory concentration (MIC).
[9] abbreviates: IFO3134, Bacillus subtilis IFO 3134, read-out: minimum inhibitory concentration (MIC).
The mark [10] stands for this setting: IFO12732, Staphylococcus aureus IFO 12732, read-out: minimum inhibitory concentration (MIC).
Where [11] appears, read: IFO3512, Klebsiella pneumoniae IFO 3512, read-out: minimum inhibitory concentration (MIC).
The mark [12] stands for this setting: ATCC607, Mycobacterium smegmatis ATCC 607, read-out: minimum inhibitory concentration (MIC).

Regarding `CO[C@H]1/C=C/O[C@@]2(C)Oc3c(C)c(O)c4c(O)c(c(/C=N/N5CCN(C)CC5)c(O)c4c3C2=O)NC(=O)/C(C)=C\C=C\[C@H](C)[C@H](O)[C@@H](C)[C@@H](O)[C@@H](C)[C@H](OC(C)=O)[C@@H]1C` [Rifampicin, reference compound], the MIC is no more than 0.02 µg/mL in series [1] (Micrococcus luteus, IFO12708, read-out: minimum inhibitory concentration (MIC)); 0.04 µg/mL (≈ 0.0486 µM) in series [2] (Bacillus subtilis, IFO3134, read-out: minimum inhibitory concentration (MIC)); no more than 0.02 µg/mL in series [3] (Staphylococcus aureus, IFO12732, read-out: minimum inhibitory concentration (MIC)); 5 µg/mL (≈ 6.08 µM) in series [4] (Klebsiella pneumoniae, IFO3512, read-out: minimum inhibitory concentration (MIC)); 10 µg/mL (≈ 12.2 µM) in series [5] (ATCC607, read-out: minimum inhibitory concentration (MIC)); 10 µg/mL (≈ 12.2 µM) in series [6].
For `COC1C=COC2(C)Oc3c(C)c(O)c4c(=O)c(c5oc6cc(N(C)C7CCCCC7)ccc6nc-5c4c3C2=O)NC(=O)C(C)=CC=CC(C)C(O)C(C)C(O)C(C)C(OC(C)=O)C1C` (stereo not drawn) [compound 12], the MIC in series [1] (setting [8]) is no more than 0.02 µg/mL; in series [2] (setting [9]) it was no more than 0.02 µg/mL; in series [3] (setting [10]), no more than 0.02 µg/mL; in series [4] (setting [11]) it was greater than 10 µg/mL; in series [5] (setting [12]), 1.25 µg/mL (≈ 1.4 µM); in series [6], greater than 10 µg/mL.
With `COC1C=COC2(C)Oc3c(C)c(O)c4c(=O)c(c5oc6cc(N7CCC(C)CC7)ccc6nc-5c4c3C2=O)NC(=O)C(C)=CC=CC(C)C(O)C(C)C(O)C(C)C(OC(C)=O)C1C` (stereo not drawn) [compound 24], the MIC in series [1] (setting [8]) was no more than 0.02 µg/mL; in series [2] (setting [9]), no more than 0.02 µg/mL; in series [3] (setting [10]), no more than 0.02 µg/mL; in series [4] (setting [11]), greater than 10 µg/mL; in series [5] (setting [12]), 1.25 µg/mL (≈ 1.42 µM); in series [6], greater than 10 µg/mL.
As for `CCC1CCCCN1c1ccc2nc3c4c5c6c(C)c(O)c4c(=O)c(c-3oc2c1)NC(=O)C(C)=CC=CC(C)C(O)C(C)C(O)C(C)C(OC(C)=O)C(C)C(OC)C=COC(C)(O6)C5=O` (stereo not drawn) [compound 25], in series [7], the concentration at 1 h came to 2400 ng/mL, the concentration at 3 h was determined as 6600 ng/mL and the concentration at 5 h amounted to 3500 ng/mL.
Take `CCN(CC)C(=O)C1CCCN(c2ccc3nc4c5c6c7c(C)c(O)c5c(=O)c(c-4oc3c2)NC(=O)C(C)=CC=CC(C)C(O)C(C)C(O)C(C)C(OC(C)=O)C(C)C(OC)C=COC(C)(O7)C6=O)C1` (stereo not drawn) [compound 31]: the MIC in series [1] (setting [8]) was no more than 0.02 µg/mL; in series [2] (setting [9]), no more than 0.02 µg/mL; in series [3] (setting [10]), no more than 0.02 µg/mL; in series [4] (setting [11]), greater than 10 µg/mL; in series [5] (setting [12]), 1.25 µg/mL (≈ 1.29 µM); in series [6], 5 µg/mL (≈ 5.17 µM).
For `COC1C=COC2(C)Oc3c(C)c(O)c4c(=O)c(c5oc6cc(N7CC=CCC7)ccc6nc-5c4c3C2=O)NC(=O)C(C)=CC=CC(C)C(O)C(C)C(O)C(C)C(OC(C)=O)C1C` (stereo not drawn) [compound 37], the MIC was no more than 0.02 µg/mL in series [1] (setting [8]); no more than 0.02 µg/mL in series [2] (setting [9]); 0.08 µg/mL (≈ 0.0924 µM) in series [3] (setting [10]); greater than 10 µg/mL in series [4] (setting [11]); 1.25 µg/mL (≈ 1.44 µM) in series [5] (setting [12]); 2.5 µg/mL (≈ 2.89 µM) in series [6].
For `COC1C=COC2(C)Oc3c(C)c(O)c4c(=O)c(c5oc6cc(N7CCN(C)CC7)ccc6nc-5c4c3C2=O)NC(=O)C(C)=CC=CC(C)C(O)C(C)C(O)C(C)C(OC(C)=O)C1C` (stereo not drawn) [compound 39], the MIC in series [1] (setting [8]) was no more than 0.02 µg/mL; in series [2] (setting [9]) it was 0.04 µg/mL (≈ 0.0453 µM); in series [3] (setting [10]), 0.04 µg/mL (≈ 0.0453 µM); in series [4] (setting [11]), 1.25 µg/mL (≈ 1.42 µM); in series [5] (setting [12]) it was 1.25 µg/mL (≈ 1.42 µM); in series [6] it was 0.63 µg/mL (≈ 0.713 µM).
As for `COC1C=COC2(C)Oc3c(C)c(O)c4c(=O)c(c5oc6cc(N7CCSCC7)ccc6nc-5c4c3C2=O)NC(=O)C(C)=CC=CC(C)C(O)C(C)C(O)C(C)C(OC(C)=O)C1C` (stereo not drawn) [compound 45], the MIC was no more than 0.02 µg/mL in series [1] (setting [8]); 0.04 µg/mL (≈ 0.0451 µM) in series [2] (setting [9]); no more than 0.02 µg/mL in series [3] (setting [10]); 10 µg/mL (≈ 11.3 µM) in series [4] (setting [11]); 1.25 µg/mL (≈ 1.41 µM) in series [5] (setting [12]); 2.5 µg/mL (≈ 2.82 µM) in series [6].
On to `COC1C=COC2(C)Oc3c(C)c(O)c4c(=O)c(c5oc6cc(N7CCCCC7)ccc6nc-5c4c3C2=O)NC(=O)C(C)=CC=CC(C)C(O)C(C)C(O)C(C)C(O)C1C` (stereo not drawn) [compound 50], for which, in series [7], the concentration at 1 h is 700 ng/mL, the concentration at 3 h was 2400 ng/mL and the concentration at 5 h came to 2800 ng/mL.

Values taken from US4690919A, “Benzoxazinorifamycin derivative, process for preparing the same and antibacterial agent containing the same” (Kanegafuchi Kagaku Kogyo Kabushiki Kaisha, priority 1985, dated 1987).
